In US20250108358A1, “PHOTOCHEMICALLY DRIVEN REGENERATION OF CARBON DIOXIDE SORBENTS” (UT-Battelle, LLC, priority 2023, published 2025):

Key:
Solubility in water = format: physicochemical
[1] = Head space CO2 release measurement (infrared sensor, 470 nm LED); conditions: mPAH 2/morpholine
Description: This step is important to reproducibly measure the CO2 release as described below. […] After the reading of CO2 was steady, irradiation was applied from outside of the glass chamber using a 470 nm LED with moderate power (˜ 13 mW/cm^2). The CO2 released to the chamber was monitored using a head space method, as also used in previous studies. The concentration of CO2 gas in the chamber was monitored by the sensor and compared to that of a standard. Not only does this method directly measure the CO2 gas released, but also it is suitable for studying relatively small samples with good sensitivity. […] Addition of a strong acid leads to complete decomposition of the bicarbonate and CO2 release. […] It also reacts with CO2 via an acid-base reaction to form bicarbonate salt.

[2] = pH measurements of mPAH 1 solutions under 355 nm lamp irradiation; format: physicochemical
Description: Light sources: The light source, referred as the 355 nm lamp thereafter, is a portion of the output of an Oriel 200 W mercury-xenon lamp, which was selected using a 2″ round Oriel broadband filter centered at 355 nm with a full width at half maximum of ˜150 nm and highest transmission of ˜90% (Filters 51664 and 59814). The photon fluxes at the sample position was ˜500 μmol·m^−2·s^−1, which measured using a handheld meter.
pH measurements and absorption spectra measurements: Typically for all experiments using the 355 nm lamp, 6 mL of solution mixtures were placed in a glass vial of diameter ˜2 cm and pH variations of the solutions upon light exposure were monitored continuously using a pH meter. Solutions were exposed to air and continuously stirred during pH measurements and sealed and kept in the dark without stirring for the mPAH 1 reverse reaction. Calculated amount of bicarbonate was replaced prior to second and third cycles. All absorption spectra during a given reaction event were acquired using a UV-vis spectrometer by taking a small amount (˜200 μL) of solution. Co-existence of different mPAH 1 conformers were verified using 1H NMR spectroscopy and theoretical calculations.

[3] = Total inorganic carbon (TIC) analysis, simulated system with KHCO3
Experimental: (§1) Total inorganic carbon analysis: To quantify the amount of total inorganic carbon converted to CO2, the quantities of bicarbonate in the solution before and after the irradiation were determined using a total inorganic carbon analyzer consisting of an acidification module and a coulometric detection. […] Air was used as carrier gas (100 mL/min) in all experiments. 1 mM KHCO3 solution was tested similarly as the reference sample. Calculations were based on sample volume and 1 M Na2CO3 was used as the standard solution.

[4] = Total inorganic carbon (TIC) analysis, CO2-loaded glycine system; conditions: for reduction in the inorganic carbon content: vs CO2-loaded glycine solution
Experimental: See F. M. Brethome et al., Nat. Energy 2018, 3, 553-559 and R. Custelcean et al., Ind. Eng. Chem. Res. 2019, 58, 23338-23346.
as §1

Row | Structure (SMILES) | solubility in water (Solubility in water) | time after start of irradiation at which head space [CO2] rose [1] | rate of pH increase owing to CO2 release ([2]; 1 mM mPAH 1 + 1 mM KHCO3, second cycle of irradiation) | rate of pH increase owing to CO2 release ([2]; 1 mM mPAH 1 + 1 mM KHCO3, third cycle of irradiation) | pH increment ([2]; 1 mM mPAH 1 + 1 mM KHCO3, third cycle performed only 4 hours after the second cycle) | time for full reverse reaction to the initial trans isomer ([2]; mPAH 1 itself, in the dark) | total inorganic carbon in the solution converted to CO2 ([3]; 1 mM mPAH 1 + 1 mM KHCO3 (simulated system), upon irradiation) | total bicarbonate converted to CO2 ([3]; 2 mM mPAH 1 pre-irradiated 30 min, mixed with equal volume 2 mM KHCO3, reaction without irradiation) | total bicarbonate converted to CO2 ([3]; 2 mM mPAH 1 pre-irradiated, mixed with equal volume 2 mM KHCO3, continuous irradiation) | reduction in the inorganic carbon content ([4]; 1 mM mixture of CO2-loaded glycine and mPAH 1, upon irradiation) | reduction in the inorganic carbon content ([4]; 20 mM mixture of CO2-loaded glycine and mPAH 1, upon irradiation) | efficiency of conversion of total inorganic carbon to CO2 ([4]; amino acid (AA)-based DAC systems, with respect to initial concentrations)
1 | COC(=O)c1ccc2sc(/C=C/c3cc(S(=O)(=O)[O-])cc4cn[nH]c34)[n+](CCCS(=O)(=O)O)c2c1 [mPAH 2] | about 30 mM | ~5 min | – | – | – | – | – | – | – | – | – | –
2 | O=S(=O)([O-])CCC[n+]1c(/C=C/c2cc(S(=O)(=O)[O-])cc3cn[nH]c23)sc2ccccc21.[Na+] [mPAH 1] | – | – | 0.35 pH units/hour | 0.11 pH units/hour | 0.31 pH units/hour | 4 to 6 h | 55% | ~3% | ~50% | approximately 68% | ~78% | 68%-78%
